Test: xn = mol fraction of the nth substance listed

CCOC(=O)C(=O)OCC + CCCCCCCCCCO
303.15 K, 101.33 kPa
Conditions	viscosity [mPa·s]
x1 = 0.1042	6.782
x1 = 0.1986	5.372
x1 = 0.2934	4.324
x1 = 0.401	3.516
x1 = 0.5111	2.851
x1 = 0.5985	2.488
x1 = 0.7108	2.078
x1 = 0.8081	1.837
x1 = 0.8863	1.691

CCCCNCCCC + CCCCCCCCO
viscosity [mPa·s], 101.33 kPa
Conditions	x1 = 0.0912	x1 = 0.1863	x1 = 0.2846	x1 = 0.3857	x1 = 0.4878	x1 = 0.5882	x1 = 0.6862	x1 = 0.7892	x1 = 0.8929
303.15 K	5.37	4.588	3.829	3.105	2.481	1.979	1.581	1.251	0.9852
313.15 K	3.865	3.336	2.812	2.336	1.921	1.569	1.277	1.026	0.827

CCOC(=O)C(=O)OCC + CCCCCCCCO
303.15 K, 101.33 kPa
Conditions	viscosity [mPa·s]
x1 = 0.0949	4.702
x1 = 0.2003	3.667
x1 = 0.2883	3.152
x1 = 0.4	2.636
x1 = 0.5026	2.296
x1 = 0.6064	2.027
x1 = 0.6984	1.86
x1 = 0.7809	1.74
x1 = 0.8763	1.638

CCCCNCCCC + CCCCCCCO
viscosity [mPa·s], 101.33 kPa
Conditions	x1 = 0.0975	x1 = 0.197	x1 = 0.2901	x1 = 0.3789	x1 = 0.4808	x1 = 0.5861	x1 = 0.685	x1 = 0.7862	x1 = 0.8807
303.15 K	4.226	3.629	3.099	2.63	2.15	1.741	1.432	1.171	0.9696
313.15 K	3.151	2.716	2.337	2.013	1.685	1.393	1.169	0.9814	0.8316

COCCO + CCCCCCCO
viscosity [mPa·s], 101 kPa
Conditions	x1 = 0.1451	x1 = 0.2763	x1 = 0.3956	x1 = 0.5044	x1 = 0.6043	x1 = 0.6961	x1 = 0.7808	x1 = 0.8593	x1 = 0.9322
298.15 K	4.92	3.963	3.336	2.889	2.551	2.252	2.054	1.852	1.79
308.15 K	3.116	2.561	2.23	1.936	1.753	1.592	1.489	1.341	1.247
318.15 K	2.496	2.203	1.906	1.611	1.487	1.455	1.465	1.142	1.095

CCCCNCCCC + CCCCCCO
viscosity [mPa·s], 101.33 kPa
Conditions	x1 = 0.1034	x1 = 0.1705	x1 = 0.2901	x1 = 0.3817	x1 = 0.5001	x1 = 0.5958	x1 = 0.6955	x1 = 0.7942	x1 = 0.9007
303.15 K	3.304	2.992	2.495	2.156	1.776	1.52	1.277	1.088	0.9036
313.15 K	2.723	2.473	2.069	1.792	1.475	1.265	1.088	0.9214	0.7818

COCCO + CCCCCCO
viscosity [mPa·s], 101 kPa
Conditions	x1 = 0.1298	x1 = 0.2513	x1 = 0.3653	x1 = 0.4723	x1 = 0.5731	x1 = 0.6682	x1 = 0.758	x1 = 0.843	x1 = 0.9236
298.15 K	3.765	3.225	2.811	2.458	2.25	2.076	1.94	1.815	1.707
308.15 K	2.612	2.233	2.027	1.815	1.667	1.487	1.356	1.303	1.273
318.15 K	2.193	1.908	1.648	1.477	1.356	1.278	1.211	1.129	1.083

CCCCNCCCC + CCCCCO
viscosity [mPa·s], 101.33 kPa
Conditions	x1 = 0.0971	x1 = 0.2014	x1 = 0.3007	x1 = 0.4003	x1 = 0.5004	x1 = 0.5841	x1 = 0.6901	x1 = 0.7836	x1 = 0.8845
303.15 K	2.493	2.178	1.913	1.676	1.473	1.319	1.142	1.006	0.8804
313.15 K	2.078	1.814	1.601	1.41	1.241	1.116	0.9767	0.8701	0.7633

COCCO + CCCCCO
viscosity [mPa·s]
Conditions	298.15 K	308.15 K	318.15 K
101 kPa, x1 = 0.114	2.939	2.12	1.659
101 kPa, x1 = 0.2246	2.569	1.894	1.525
101 kPa, x1 = 0.3317	2.346	1.724	1.427
101 kPa, x1 = 0.4357	2.155	1.543	1.279
101 kPa, x1 = 0.5367	2.007	1.442	1.234
101 kPa, x1 = 0.6347	1.894	1.413	1.222
101 kPa, x1 = 0.7299	1.8	1.306	1.208
101 kPa, x1 = 0.8225	1.72	1.254	1.035
101 kPa, x1 = 0.9125	1.686	1.249	1.036
101.33 kPa, x1 = 0.1741	–	1.966	–
101.33 kPa, x1 = 0.2604	–	1.804	–
101.33 kPa, x1 = 0.3455	–	1.665	–
101.33 kPa, x1 = 0.4796	–	1.511	–
101.33 kPa, x1 = 0.6102	–	1.385	–
101.33 kPa, x1 = 0.7245	–	1.309	–
101.33 kPa, x1 = 0.78	–	1.284	–
101.33 kPa, x1 = 0.9014	–	1.23	–

Source: the CheMixHub viscosity set
